Laboratory results taken from ChEMBL document CHEMBL1134146, “Development of specific CXCR4 inhibitors possessing high selectivity indexes as well as complete stability in serum based on an anti-HIV peptide T140” (Bioorg Med Chem Lett, 2001).

Key:
PBMC (Homo sapiens) = experiment: Cytotoxic concentration of compound determined by the […] exclusion staining method in PBMC by test II
MT4 = experiment: Cytotoxic concentration of compound required to reduce the viability of mock infected MT-4 cells on the MTT assay in test I; assay type: functional; details: Homo sapiens
[1] = Selectivity index determined for CC50 (test II) to EC50 x 10e3; assay type: functional
[2] = Selectivity index determined for CC50 (test I) to EC50 x 10e3; assay type: functional

| Structure (SMILES) | CC50 (PBMC (Homo sapiens)) | CC50 (MT4) | SI [1] | SI [2] |
| --- | --- | --- | --- | --- |
| NCCCC[C@@H]1NC(=O)[C@H](CCCN=C(N)N)NC(=O)[C@H](Cc2ccc(O)cc2)NC(=O)[C@@H](NC(=O)[C@@H](NC(=O)[C@H](CCCN=C(N)N)NC(=O)[C@@H](N)CCCNC(N)=O)c2ccc3ccccc3c2)CSSC[C@@H](C(=O)N[C@@H](CCCN=C(N)N)C(=O)O)NC(=O)[C@H](CCCNC(N)=O)NC(=O)[C@H](CCCNC(N)=O)NC(=O)[C@H](Cc2ccc(O)cc2)NC(=O)[C@@H]2CCCN2C(=O)[C@@H](CCCCN)NC1=O | > 800 µM | > 100 µM |  |  |
| NCCCC[C@H]1NC(=O)[C@H](CCCNC(N)=O)NC(=O)[C@@H](Cc2ccc(O)cc2)NC(=O)[C@H](NC(=O)[C@@H](NC(=O)[C@H](CCCN=C(N)N)NC(=O)[C@@H](N)CCCN=C(N)N)c2ccc3ccccc3c2)CSSC[C@H](C(=O)N[C@@H](CCCN=C(N)N)C(=O)O)NC(=O)[C@H](CCCNC(N)=O)NC(=O)[C@H](CCCN=C(N)N)NC(=O)[C@H](Cc2ccc(O)cc2)NC(=O)[C@H]2CCCN2C(=O)[C@H](CCCNC(N)=O)NC1=O |  |  | > 1600 | > 200 |
| Nc1ccn([C@H]2CC[C@@H](CO)O2)c(=O)n1 [ZALCITABINE] |  | 14 µM |  | 0.16 |
| NCCCC[C@@H]1NC(=O)[C@@H](CCCCN)NC(=O)[C@H](CCCN=C(N)N)NC(=O)[C@@H](Cc2ccc(O)cc2)NC(=O)[C@H](NC(=O)[C@@H](NC(=O)[C@H](CCCN=C(N)N)NC(=O)[C@@H](N)CCCN=C(N)N)c2ccc3ccccc3c2)CSSC[C@H](C(=O)N[C@@H](CCCN=C(N)N)C(N)=O)NC(=O)[C@H](CCCNC(N)=O)NC(=O)[C@H](CCCN=C(N)N)NC(=O)[C@H](Cc2ccc(O)cc2)NC(=O)[C@H]2CCCN2C1=O |  |  |  | 0.14 |
| NCCCC[C@@H]1NC(=O)[C@H](CCCNC(N)=O)NC(=O)[C@H](Cc2ccc(O)cc2)NC(=O)[C@@H](NC(=O)[C@@H](NC(=O)[C@H](CCCN=C(N)N)NC(=O)[C@@H](N)CCCN=C(N)N)c2ccc3ccccc3c2)CSSC[C@@H](C(=O)N[C@@H](CCCN=C(N)N)C(=O)O)NC(=O)[C@H](CCCNC(N)=O)NC(=O)[C@H](CCCNC(N)=O)NC(=O)[C@H](Cc2ccc(O)cc2)NC(=O)[C@@H]2CCCN2C(=O)[C@@H](CCCCN)NC1=O | > 800 µM | > 100 µM |  |  |
| NCCCC[C@@H]1NC(=O)[C@H](CCCN=C(N)N)NC(=O)[C@H](Cc2ccc(O)cc2)NC(=O)[C@@H](NC(=O)[C@@H](NC(=O)[C@H](CCCN=C(N)N)NC(=O)[C@@H](N)CCCN=C(N)N)c2ccc3ccccc3c2)CSSC[C@@H](C(=O)N[C@@H](CCCN=C(N)N)C(=O)O)NC(=O)[C@H](CCCNC(N)=O)NC(=O)[C@H](CCCN=C(N)N)NC(=O)[C@H](Cc2ccc(O)cc2)NC(=O)[C@@H]2CCCN2C(=O)[C@@H](CCCNC(N)=O)NC1=O | 110 µM | > 80 µM |  |  |
| NCCCC[C@@H]1NC(=O)[C@H](CCCN=C(N)N)NC(=O)[C@H](Cc2ccc(O)cc2)NC(=O)[C@@H](NC(=O)[C@@H](NC(=O)[C@H](CCCN=C(N)N)NC(=O)[C@@H](N)CCCN=C(N)N)c2ccc3ccccc3c2)CSSC[C@@H](C(=O)N[C@@H](CCCN=C(N)N)C(N)=O)NC(=O)[C@H](CCCNC(N)=O)NC(=O)[C@H](CCCN=C(N)N)NC(=O)[C@H](Cc2ccc(O)cc2)NC(=O)[C@@H]2CCCN2C(=O)[C@@H](CCCNC(N)=O)NC1=O | 98 µM | > 100 µM |  |  |
| NCCCC[C@@H]1NC(=O)[C@H](CCCN=C(N)N)NC(=O)[C@H](Cc2ccc(O)cc2)NC(=O)[C@@H](NC(=O)[C@@H](NC(=O)[C@H](CCCN=C(N)N)NC(=O)[C@@H](N)CCCNC(N)=O)c2ccc3ccccc3c2)CSSC[C@@H](C(=O)N[C@@H](CCCN=C(N)N)C(N)=O)NC(=O)[C@H](CCCNC(N)=O)NC(=O)[C@H](CCCNC(N)=O)NC(=O)[C@H](Cc2ccc(O)cc2)NC(=O)[C@@H]2CCCN2C(=O)[C@@H](CCCCN)NC1=O | 470 µM | > 100 µM |  |  |
| NCCCC[C@@H]1NC(=O)[C@H](CCCN=C(N)N)NC(=O)[C@H](Cc2ccc(O)cc2)NC(=O)[C@@H](NC(=O)[C@@H](NC(=O)[C@H](CCCN=C(N)N)NC(=O)[C@@H](N)CCCN=C(N)N)c2ccc3ccccc3c2)CSSC[C@@H](C(=O)N[C@@H](CCCN=C(N)N)C(N)=O)NC(=O)[C@H](CCCNC(N)=O)NC(=O)[C@H](CCCN=C(N)N)NC(=O)[C@H](Cc2ccc(O)cc2)NC(=O)[C@@H]2CCCN2C(=O)[C@@H](CCCCN)NC1=O |  | 10 µM |  |  |
| NCCCC[C@@H]1NC(=O)[C@H](CCCN=C(N)N)NC(=O)[C@H](Cc2ccc(O)cc2)NC(=O)[C@@H](NC(=O)[C@@H](NC(=O)[C@H](CCCN=C(N)N)NC(=O)[C@@H](N)CCCN=C(N)N)c2ccc3ccccc3c2)CSSC[C@@H](C(=O)N[C@@H](CCCN=C(N)N)C(N)=O)NC(=O)[C@H](CCCNC(N)=O)NC(=O)[C@H](CCCNC(N)=O)NC(=O)[C@H](Cc2ccc(O)cc2)NC(=O)[C@@H]2CCCN2C(=O)[C@@H](CCCNC(N)=O)NC1=O | 680 µM | > 100 µM |  |  |
| NCCCC[C@@H]1NC(=O)[C@H](CCCN=C(N)N)NC(=O)[C@H](Cc2ccc(O)cc2)NC(=O)[C@@H](NC(=O)[C@@H](NC(=O)[C@H](CCCN=C(N)N)NC(=O)[C@@H](N)CCCNC(N)=O)c2ccc3ccccc3c2)CSSC[C@@H](C(=O)N[C@@H](CCCN=C(N)N)C(=O)O)NC(=O)[C@H](CCCNC(N)=O)NC(=O)[C@H](CCCN=C(N)N)NC(=O)[C@H](Cc2ccc(O)cc2)NC(=O)[C@@H]2CCCN2C(=O)[C@@H](CCCNC(N)=O)NC1=O | > 800 µM | > 100 µM |  |  |
| NCCCC[C@@H]1NC(=O)[C@H](CCCNC(N)=O)NC(=O)[C@H](Cc2ccc(O)cc2)NC(=O)[C@@H](NC(=O)[C@@H](NC(=O)[C@H](CCCN=C(N)N)NC(=O)[C@@H](N)CCCN=C(N)N)c2ccc3ccccc3c2)CSSC[C@@H](C(=O)N[C@@H](CCCN=C(N)N)C(=O)O)NC(=O)[C@H](CCCNC(N)=O)NC(=O)[C@H](CCCN=C(N)N)NC(=O)[C@H](Cc2ccc(O)cc2)NC(=O)[C@@H]2CCCN2C(=O)[C@@H](CCCNC(N)=O)NC1=O | > 800 µM | > 100 µM |  |  |
| NCCCC[C@@H]1NC(=O)[C@H](CCCNC(N)=O)NC(=O)[C@H](Cc2ccc(O)cc2)NC(=O)[C@@H](NC(=O)[C@@H](NC(=O)[C@H](CCCN=C(N)N)NC(=O)[C@@H](N)CCCN=C(N)N)c2ccc3ccccc3c2)CSSC[C@@H](C(=O)N[C@@H](CCCN=C(N)N)C(=O)O)NC(=O)[C@H](CCCNC(N)=O)NC(=O)[C@H](CCCN=C(N)N)NC(=O)[C@H](Cc2ccc(O)cc2)NC(=O)[C@@H]2CCCN2C(=O)[C@@H](CCCCN)NC1=O | 510 µM | > 80 µM |  |  |
| NCCCC[C@@H]1NC(=O)[C@H](CCCNC(N)=O)NC(=O)[C@H](Cc2ccc(O)cc2)NC(=O)[C@@H](NC(=O)[C@@H](NC(=O)[C@H](CCCN=C(N)N)NC(=O)[C@@H](N)CCCN=C(N)N)c2ccc3ccccc3c2)CSSC[C@@H](C(=O)N[C@@H](CCCN=C(N)N)C(N)=O)NC(=O)[C@H](CCCNC(N)=O)NC(=O)[C@H](CCCN=C(N)N)NC(=O)[C@H](Cc2ccc(O)cc2)NC(=O)[C@@H]2CCCN2C(=O)[C@@H](CCCNC(N)=O)NC1=O | > 800 µM | > 100 µM |  |  |
| NCCCC[C@@H]1NC(=O)[C@H](CCCNC(N)=O)NC(=O)[C@H](Cc2ccc(O)cc2)NC(=O)[C@@H](NC(=O)[C@@H](NC(=O)[C@H](CCCN=C(N)N)NC(=O)[C@@H](N)CCCNC(N)=O)c2ccc3ccccc3c2)CSSC[C@@H](C(=O)N[C@@H](CCCN=C(N)N)C(=O)O)NC(=O)[C@H](CCCNC(N)=O)NC(=O)[C@H](CCCN=C(N)N)NC(=O)[C@H](Cc2ccc(O)cc2)NC(=O)[C@@H]2CCCN2C(=O)[C@@H](CCCCN)NC1=O | > 800 µM | > 100 µM |  |  |
| NCCCC[C@@H]1NC(=O)[C@H](CCCNC(N)=O)NC(=O)[C@H](Cc2ccc(O)cc2)NC(=O)[C@@H](NC(=O)[C@@H](NC(=O)[C@H](CCCN=C(N)N)NC(=O)[C@@H](N)CCCNC(N)=O)c2ccc3ccccc3c2)CSSC[C@@H](C(=O)N[C@@H](CCCN=C(N)N)C(N)=O)NC(=O)[C@H](CCCNC(N)=O)NC(=O)[C@H](CCCN=C(N)N)NC(=O)[C@H](Cc2ccc(O)cc2)NC(=O)[C@@H]2CCCN2C(=O)[C@@H](CCCCN)NC1=O | 350 µM | > 100 µM |  |  |
| NCCCC[C@@H]1NC(=O)[C@H](CCCN=C(N)N)NC(=O)[C@H](Cc2ccc(O)cc2)NC(=O)[C@@H](NC(=O)[C@@H](NC(=O)[C@H](CCCN=C(N)N)NC(=O)[C@@H](N)CCCN=C(N)N)c2ccc3ccccc3c2)CSSC[C@@H](C(=O)N[C@@H](CCCN=C(N)N)C(=O)O)NC(=O)[C@H](CCCNC(N)=O)NC(=O)[C@H](CCCNC(N)=O)NC(=O)[C@H](Cc2ccc(O)cc2)NC(=O)[C@@H]2CCCN2C(=O)[C@@H](CCCNC(N)=O)NC1=O | > 800 µM | > 100 µM |  |  |
| NCCCC[C@@H]1NC(=O)[C@H](CCCN=C(N)N)NC(=O)[C@H](Cc2ccc(O)cc2)NC(=O)[C@@H](NC(=O)[C@@H](NC(=O)[C@H](CCCN=C(N)N)NC(=O)[C@@H](N)CCCNC(N)=O)c2ccc3ccccc3c2)CSSC[C@@H](C(=O)N[C@@H](CCCN=C(N)N)C(N)=O)NC(=O)[C@H](CCCNC(N)=O)NC(=O)[C@H](CCCN=C(N)N)NC(=O)[C@H](Cc2ccc(O)cc2)NC(=O)[C@@H]2CCCN2C(=O)[C@@H](CCCNC(N)=O)NC1=O | 500 µM | > 100 µM |  |  |
| NCCCC[C@@H]1NC(=O)[C@H](CCCNC(N)=O)NC(=O)[C@H](Cc2ccc(O)cc2)NC(=O)[C@@H](NC(=O)[C@@H](NC(=O)[C@H](CCCN=C(N)N)NC(=O)[C@@H](N)CCCN=C(N)N)c2ccc3ccccc3c2)CSSC[C@@H](C(=O)N[C@@H](CCCN=C(N)N)C(N)=O)NC(=O)[C@H](CCCNC(N)=O)NC(=O)[C@H](CCCNC(N)=O)NC(=O)[C@H](Cc2ccc(O)cc2)NC(=O)[C@@H]2CCCN2C(=O)[C@@H](CCCCN)NC1=O | > 400 µM | > 100 µM |  |  |
| NCCCC[C@@H]1NC(=O)[C@H](CCCNC(N)=O)NC(=O)[C@H](Cc2ccc(O)cc2)NC(=O)[C@@H](NC(=O)[C@@H](NC(=O)[C@H](CCCN=C(N)N)NC(=O)[C@@H](N)CCCN=C(N)N)c2ccc3ccccc3c2)CSSC[C@@H](C(=O)N[C@@H](CCCN=C(N)N)C(N)=O)NC(=O)[C@H](CCCNC(N)=O)NC(=O)[C@H](CCCN=C(N)N)NC(=O)[C@H](Cc2ccc(O)cc2)NC(=O)[C@@H]2CCCN2C(=O)[C@@H](CCCCN)NC1=O | 410 µM | > 100 µM |  |  |
